Test results reported in patent US12281112B2, “Compounds for inhibiting NLRP3 and uses thereof” (Ventus Therapeutics U.S., Inc., priority 2021, dated 2025).
pIC50: −log10 of the molar value.

Legend:
[1] = biological target: T1, NLRP3 (Homo sapiens, UniProt Q96P20); assay: Human PBMC NLRP3 Assay; type: cell-based
Description: Human PBMC NLRP3 Assay: Cryopreserved PBMCs were rapidly thawed in a 37° C. water bath for 2 min. […] A count was undertaken using a hemocytometer and adjusted to 2.5×10^5 cells/mL. V-shaped 96-well plates were seeded with 200 μL of PMBCs (5×10^4) per well and subsequently incubated overnight at 37° C. with 5% CO2. Assay Media was then prepared containing 100 ng/ml of LPS. PBMCs were then centrifuged at 1,200 RPM for 5 min, serum containing media was aspirated, and 150 μL/well of Assay Media+LPS was immediately added. Assay Media without LPS was added in the untreated control wells. Cells were then primed with LPS for 4 h at 37° C. with 5% CO2. A concentration response curve (CRC) was prepared of 1000× test compound in 100% DMSO. The CRC was then diluted 1:50 in Assay Media and then further diluted by 1:5× in Assay Media resulting in a final 4×CRC in 0.4% DMSO/Assay Media. 50 μL/well of 4× test compound CRC or vehicle (0.4% DMSO/Assay Media) was then transferred into each well and subsequently incubated for 30 min at 37° C. with 5% CO2. Cells were stimulated by adding 4 μL of 250 mM ATP, using a 250 mM stock prepared in 1 M Hepes without further dilution (for a final concentration of 5 mM), for 1 h at 37° C. with 5% CO2. Plates were then centrifuged at 1200 RPM for 5 min; and 50 μl of the media was transferred to a clean 96-well storage plate for cytokine measurements using the mesoscale platform, and stored at −80° C. until analyzed.

[2] = biological target: T1, NLRP3; assay: Human whole blood (hWB) NLRP3 Assay; type: cell-based; parameters: Blood is collected from healthy volunteers in heparin lithium tubes; from tissue; host or cells: pooled heparinised whole blood from healthy human volunteers, LPS-primed, ATP-stimulated
Description: Blood is collected from healthy volunteers in heparin lithium tubes. • 2. Plate 90 μL of pooled blood per well in 96-well U-bottom plates. • 3. Add 5 uL of 20×LPS (20 ug/mL, final concentration of 1 ug/mL) and mix by gentle pipetting. • 4. Incubate in TC incubator for 4.5 hours. • 5. Add 5 uL of 20× compound or vehicle per well and mix by gentle pipetting. • a. Compounds are diluted 1/50 in HBSS to prepare a 20× dilution curve in 2% DMSO • 6. Incubate for 30 minutes in TC incubator with shaking (450 rpm). • 7. […] Incubate in TC incubator for 30 minutes with shaking (450 rpm). • 9. Centrifuge plate for 10 minutes at 800×g and carefully remove ˜70 μL of plasma. Freeze plasma if required. • 10. Analyze human IL-1b with IL-1b MSD assay (K151TUK) • a.

[3] = human PBMCs primed with LPS 4 h, compound 30 min, ATP 5 mM 1 h, cytokine measurement on mesoscale platform, potency code
[4] = LPS 1 ug/mL 4.5 h, compound 30 min, ATP 5 mM 30 min, IL-1b MSD assay, potency code
[5] = Table 6: regioisomer comparison
[6] = Table 5: fused bicyclic analogs vs monocyclic pyridazines

T1 sequence (Q96P20 whole entry): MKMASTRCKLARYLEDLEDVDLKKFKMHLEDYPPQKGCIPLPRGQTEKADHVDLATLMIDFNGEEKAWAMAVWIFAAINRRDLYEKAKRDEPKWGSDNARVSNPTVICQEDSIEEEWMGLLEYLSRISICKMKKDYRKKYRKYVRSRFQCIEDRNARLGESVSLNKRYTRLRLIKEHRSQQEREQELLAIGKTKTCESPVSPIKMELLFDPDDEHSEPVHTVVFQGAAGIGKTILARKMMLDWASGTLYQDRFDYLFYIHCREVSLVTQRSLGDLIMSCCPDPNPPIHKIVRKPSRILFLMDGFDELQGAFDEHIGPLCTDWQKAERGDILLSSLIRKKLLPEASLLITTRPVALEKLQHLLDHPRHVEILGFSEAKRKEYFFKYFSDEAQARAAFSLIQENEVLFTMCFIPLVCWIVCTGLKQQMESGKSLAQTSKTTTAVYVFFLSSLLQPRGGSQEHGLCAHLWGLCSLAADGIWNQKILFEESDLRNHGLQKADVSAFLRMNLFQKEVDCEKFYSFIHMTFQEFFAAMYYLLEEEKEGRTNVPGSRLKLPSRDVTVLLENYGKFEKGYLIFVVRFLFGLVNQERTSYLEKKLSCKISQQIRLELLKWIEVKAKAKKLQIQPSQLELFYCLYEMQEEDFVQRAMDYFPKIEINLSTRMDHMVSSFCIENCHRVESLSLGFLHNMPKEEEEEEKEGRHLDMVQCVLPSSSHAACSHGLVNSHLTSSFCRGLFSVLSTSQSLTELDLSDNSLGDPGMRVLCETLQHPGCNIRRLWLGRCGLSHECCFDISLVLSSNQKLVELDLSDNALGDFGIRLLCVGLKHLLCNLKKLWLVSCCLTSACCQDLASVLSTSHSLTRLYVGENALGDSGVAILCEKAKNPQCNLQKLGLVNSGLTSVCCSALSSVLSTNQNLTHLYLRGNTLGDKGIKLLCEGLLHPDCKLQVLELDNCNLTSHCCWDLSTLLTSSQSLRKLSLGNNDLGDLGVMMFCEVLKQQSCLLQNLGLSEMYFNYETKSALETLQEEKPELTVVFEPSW

SMILES: Clc1ccc(-c2nnc(NC[C@H]3CCCO3)c3cc(Cl)ccc23)cc1 (racemic) [Compound 21, 7-chloro-4-(4-chlorophenyl)-N-[[rac-(2R)-tetrahydrofuran-2-yl]methyl]phthalazin-1-amine]
- pIC50 [1, 3]: 6.30 to 6.52
- pIC50 [2, 4]: > 6.52

SMILES: Clc1ccc(-c2nnc(NCC3COCCO3)c3ccccc23)cc1 (single isomer, unassigned) [Compound 24]
- pIC50 [2, 4]: > 6.52

SMILES: CN(CC1CCCO1)c1nnc(-c2ccc(Cl)cc2)c2ccccc12 (stereo not shown) [Compound 19, 4-(4-chlorophenyl)-N-methyl-N-(tetrahydrofuran-2-ylmethyl)phthalazin-1-amine]
- pIC50 [2, 4]: 6.30 to 6.52

SMILES: CN1CCC[C@H]1CNc1nnc(-c2ccc(Cl)cc2O)c2ccncc12 [Compound 93, (S)-5-chloro-2-(4-(((1-methylpyrrolidin-2-yl)methyl)amino)pyrido[3,4-d]pyridazin-1-yl)phenol]
- pIC50 [1, 3]: > 6.52

SMILES: Clc1ccc(-c2nnc(NCC3CCCOC3)c3ccccc23)cc1 (stereo not shown) [Compound 9, 4-(4-chlorophenyl)-N-(tetrahydropyran-3-ylmethyl)phthalazin-1-amine]
- pIC50 [2, 4]: 6.00 to 6.30

SMILES: CC(C)(O)CNc1nnc(-c2ccc(Cl)cc2O)c2ccncc12 [Compound 82, 5-chloro-2-(4-((2-hydroxy-2-methylpropyl)amino)pyrido[3,4-d]pyridazin-1-yl)phenol]
- pIC50 [1, 3]: > 6.52

SMILES: FC(F)(F)c1ccc(-c2nnc(NCC3CCCO3)c3ccccc23)cc1 (stereo not shown) [Compound 11, N-(tetrahydrofuran-2-ylmethyl)-4-[4-(trifluoromethyl)phenyl]phthalazin-1-amine]
- pIC50 [1, 3]: > 6.52
- pIC50 [2, 4]: > 6.52

SMILES: Clc1ccc(-c2nnc(NC[C@@H]3CCCO3)c3ccncc23)cc1 [Compound 2, (S)-4-(4-chlorophenyl)-N-((tetrahydrofuran-2-yl)methyl)pyrido[3,4-d]pyridazin-1-amine]
- pIC50 [2, 4]: > 6.52

SMILES: Clc1ccc(-c2ccc(NCC3CCCO3)nn2)cc1 (stereo not shown) [drawing 171]
- pIC50 [1, 5]: 4.19
- pIC50 [2, 5]: < 4.30

SMILES: CC1(CNc2nnc(-c3ccc(Cl)cc3)c3ccccc23)CCCO1 (stereo not shown) [Compound 8, 4-(4-chlorophenyl)-N-[(2-methyltetrahydrofuran-2-yl)methyl]phthalazin-1-amine]
- pIC50 [2, 4]: > 6.52

SMILES: CC1(CNc2ccc(-c3ccc(Br)cc3)nn2)CCCO1 (stereo not shown) [Compound 6, 6-(4-bromophenyl)-N-[(2-methyltetrahydrofuran-2-yl)methyl]pyridazin-3-amine]
- pIC50 [1, 3]: < 6.00
- pIC50 [2, 4]: > 6.52

SMILES: Clc1ccc(-c2nnc(NCC3CCCO3)c3ccncc23)cc1 (single isomer, unassigned)
- pIC50 [1, 5]: 5.54

SMILES: Clc1ccc(-c2ccc(NCC3CCCO3)nn2)cc1 (stereo not shown) [drawing 169]
- pIC50 [1, 6]: 4.19

SMILES: COCCNc1nnc(-c2ccc(Cl)cc2)c2ccccc12 [Compound 18, 4-(4-chlorophenyl)-N-(2-methoxyethyl)phthalazin-1-amine]
- pIC50 [2, 4]: > 6.52

SMILES: Oc1cc(Cl)ccc1-c1nnc(NC[C@H]2CCC(F)(F)C2)c2cnccc12 (single isomer, unassigned) [Compound 91]
- pIC50 [1, 3]: > 6.52

SMILES: CC1COC(CNc2nnc(-c3ccc(Cl)cc3)c3ccccc23)C1 (stereo not shown) [Compound 22, 4-(4-chlorophenyl)-N-[(4-methyltetrahydrofuran-2-yl)methyl]phthalazin-1-amine]
- pIC50 [2, 4]: 6.00 to 6.30

SMILES: Brc1ccc(-c2ccc(NCC3CCCO3)nn2)cc1 (stereo not shown)
- pIC50 [1, 6]: 5.42

SMILES: Oc1cc(Cl)ccc1-c1nnc(N[C@H]2CCOC2)c2cnccc12 [Compound 89, (S)-5-chloro-2-(4-((tetrahydrofuran-3-yl)amino)pyrido[3,4-d]pyridazin-1-yl)phenol]
- pIC50 [1, 3]: > 6.52

SMILES: OCCNc1nnc(-c2ccc(Cl)cc2)c2ccccc12 [Compound 16, 2-[[4-(4-chlorophenyl)phthalazin-1-yl]amino]ethanol]
- pIC50 [2, 4]: 6.00 to 6.30

SMILES: Clc1ccc(-c2nnc(NCC3CCOCC3)c3ccccc23)cc1 [Compound 10, 4-(4-chlorophenyl)-N-(tetrahydropyran-4-ylmethyl)phthalazin-1-amine]
- pIC50 [2, 4]: < 6.00

SMILES: Clc1ccc(-c2nnc(OC[C@H]3CCCO3)c3cnccc23)cc1 [Compound 3, (R)-1-(4-chlorophenyl)-4-((tetrahydrofuran-2-yl)methoxy)pyrido[3,4-d]pyridazine]
- pIC50 [2, 4]: 6.30 to 6.52

SMILES: Brc1ccc(-c2nnc(NCC3CCCO3)c3ccccc23)cc1 (stereo not shown) [drawing 168]
- pIC50 [1, 6]: 6.72

SMILES: COC(C)(C)CNc1nnc(-c2ccc(Cl)cc2O)c2ccncc12 [Compound 83, 5-chloro-2-(4-((2-methoxy-2-methylpropyl)amino)pyrido[3,4-d]pyridazin-1-yl)phenol]
- pIC50 [1, 3]: > 6.52

SMILES: Clc1ccc(-c2nnc(NCC3CCCO3)c3ccncc23)cc1 (stereo not shown) [Compound 15, 4-(4-chlorophenyl)-N-(tetrahydrofuran-2-ylmethyl)pyrido[3,4-d]pyridazin-1-amine]
- pIC50 [1, 3]: < 6.00
- pIC50 [2, 4]: 6.00 to 6.30

SMILES: Clc1ccc(-c2nnc(NCC3CCCCO3)c3ccccc23)cc1 (stereo not shown) [Compound 17, 4-(4-chlorophenyl)-N-(tetrahydropyran-2-ylmethyl)phthalazin-1-amine]
- pIC50 [2, 4]: < 6.00

SMILES: Clc1ccc(-c2nnc(OC[C@H]3CCCO3)c3ccncc23)cc1 [Compound 4, (R)-4-(4-chlorophenyl)-1-((tetrahydrofuran-2-yl)methoxy)pyrido[3,4-d]pyridazine]
- pIC50 [2, 4]: 6.30 to 6.52

SMILES: Cc1cc(Cl)ccc1-c1nnc(NCC2CCCO2)c2ccccc12 (stereo not shown) [Compound 20, 4-(4-chloro-2-methyl-phenyl)-N-(tetrahydrofuran-2-ylmethyl)phthalazin-1-amine]
- pIC50 [1, 3]: 6.30 to 6.52
- pIC50 [2, 4]: 6.30 to 6.52

SMILES: Clc1ccc(-c2nnc(NCC3COCCO3)c3ccccc23)cc1 (single isomer, unassigned) [Compound 23]
- pIC50 [1, 3]: 6.00 to 6.30
- pIC50 [2, 4]: < 6.00

SMILES: Brc1ccc(-c2nnc(NCC3CCCO3)c3ccccc23)cc1 (stereo not shown) [Compound 7, 4-(4-bromophenyl)-N-(tetrahydrofuran-2-ylmethyl)phthalazin-1-amine]
- pIC50 [1, 3]: > 6.52
- pIC50 [2, 4]: < 6.00
